Measured values as given in paper PMC4103530, “Antimicrobial Activity of Pantothenol against Staphylococci Possessing a Prokaryotic Type II Pantothenate Kinase” (Microbes and Environments, 2014).

Tests used:
[1] = target: T1, EcCoaA (prokaryotic type I pantothenate kinase) (Escherichia coli, UniProt P0A6I3); test: radiometric pantothenate kinase assay with D-[…]pantothenate; type: biochemical
T1 construct: gene coaA; recombinant from pET15b/bPanK in E. coli BL21 (DE3), nickel-resin purified, His-tag
T1 sequence (P0A6I3 1-316): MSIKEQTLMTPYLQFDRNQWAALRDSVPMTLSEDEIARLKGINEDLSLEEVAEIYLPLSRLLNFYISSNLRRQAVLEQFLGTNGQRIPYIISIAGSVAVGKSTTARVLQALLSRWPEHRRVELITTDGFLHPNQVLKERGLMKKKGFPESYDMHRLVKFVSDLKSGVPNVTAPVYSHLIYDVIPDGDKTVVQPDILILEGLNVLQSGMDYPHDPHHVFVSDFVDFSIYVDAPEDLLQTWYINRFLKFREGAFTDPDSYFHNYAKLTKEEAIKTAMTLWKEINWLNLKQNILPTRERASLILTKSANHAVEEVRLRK

[2] = target: T2, SaCoaA (prokaryotic type II pantothenate kinase) (Staphylococcus aureus, UniProt Q8NVG0); test: as above; type: biochemical
T2 construct: gene coaW; recombinant from pET-28a(+) (pET-Sa-coaA) in E. coli BL21 (DE3), nickel-resin purified, His-tag
T2 sequence (Q8NVG0 1-267): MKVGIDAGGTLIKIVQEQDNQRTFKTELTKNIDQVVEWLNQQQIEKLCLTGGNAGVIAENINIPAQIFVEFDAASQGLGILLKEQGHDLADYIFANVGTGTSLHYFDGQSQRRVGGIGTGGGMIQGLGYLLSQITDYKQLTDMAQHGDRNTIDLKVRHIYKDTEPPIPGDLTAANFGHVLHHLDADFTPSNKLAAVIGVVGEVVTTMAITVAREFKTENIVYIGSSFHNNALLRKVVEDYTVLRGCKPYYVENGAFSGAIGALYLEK

CC(C)(CO)[C@@H](O)C(=O)NCCCO [d-pantothenol]
IC50 [1]: 6.06 mM
IC50 [2]: 1.68 mM
